For one assay, the system named is HCT 116 cell line. Description: Inhibition of Cell Growth (MTT tetrazolium salt assay). The settings on record: Homo sapiens, HCT 116, MTT; for IC50: 50% inhibition of growth, read-out: HCT 116 IC50; for IC90: read-out: HCT 116 IC90. Format: cell-based. As to the method:
Inhibition of Cell Growth: Assessment of Cytotoxicity
Inhibition of cell growth was measured using the tetrazolium salt assay, which is based on the ability of viable cells to reduce 3-(4,5-dimethylthiazol-2-yl)-2,5-[2H]-diphenyltetrazolium bromide (MTT) to formazan (Mossman, Journal of Immunological Methods, vol. 65 (1983), pp. 55–58). The water-insoluble purple formazan product was then detected spectrophotometrically. The HCT 116 cell line was grown in 96-well plates. Cells were plated in the appropriate medium at a volume of 135 μl/well in McCoy's 5A Medium. Plates were incubated for four hours before addition of inhibitor compounds. Different concentrations of inhibitor compounds were added in 0.5% (v/v) dimethylsulfoxide (15 μL/well), and cells were incubated at 37° C. (5% CO2) for four to six days (depending on cell type). At the end of the incubation, MTT was added to a final concentration of 0.2 mg/mL, and cells were incubated for 4 hours more at 37° C. After centrifugation of the plates and removal of medium, the absorbance of the formazan (solubilized in dimethylsulfoxide) was measured at 540 nm. The concentration of inhibitor compound causing 50% inhibition of growth was determined from the linear portion of a semi-log plot of inhibitor concentration versus percentage inhibition. All results were compared to control cells treated only with 0.5% (v/v) dimethylsulfoxide.

The next assay deals with T1, CDK2/cyclin A (Homo sapiens, UniProt P24941).
T1 construct: made in house; host or cells: CDK2: insect cells (baculovirus); cyclin A: E. coli
Description: Inhibition of CDK2/Cyclin A Retinoblastoma Kinase Activity. Format: biochemical. The settings on record: apparent Ki. As to the method:
(§1) Cyclin-dependent kinase activity was measured by quantifying the enzyme-catalyzed, time-dependent incorporation of radioactive phosphate from [^32P]ATP or [^33P]ATP into a protein substrate. Unless noted otherwise, assays were performed in 96-well plates in a total volume of 50 μL, in the presence of 10 mM HEPES (N-[2-hydroxyethyl]piperazine-N′-[2-ethanesulfonic acid]) (pH 7.4), 10 mM MgCl2, 25 μM adenosine triphosphate (ATP), 1 mg/mL ovalbumin, 5 μg/mL leupeptin, 1 mM dithiothreitol, 10 mM beta-glycerophosphate, 0.1 mM sodium vanadate, 1 mM sodium fluoride, 2.5 mM ethylene glycol-bis(β-aminoethyl ethKer)-N,N,N′N′-tetraacetic acid (EGTA), 2% (v/v) dimethylsulfoxide, and 0.03–0.4 μCi [^32/33P]ATP per reaction. Reactions were initiated with appropriate enzyme, incubated at 30° C., and terminated after 20 minutes by the addition of ethylenediaminetetraacetic acid (EDTA) to 250 mM. The phosphorylated substrate was then captured on a nitrocellulose or phosphocellulose membrane using a 96-well filtration manifold, and unincorporated radioactivity was removed by repeated washing with 0.85% phosphoric acid. Radioactivity was quantified by exposing the dried membranes to a phosphorimager.
(§2) Apparent Ki values were measured by assaying enzyme activity in the presence of different inhibitor compound concentrations and subtracting the background radioactivity measured in the absence of enzyme. Inhibition data were fit to an equation for competitive inhibition using Kaleidagraph (Synergy Software), or were fit to an equation for competitive tight-binding inhibition using the software KineTic (BioKin, Ltd.).
Inhibition of CDK2/Cyclin A Retinoblastoma Kinase Activity
CDK2 was purified using published methodology (Rosenblatt et al., “Purification and Crystallization of Human Cyclin-dependent Kinase 2,” J. Mol. Biol., vol. 230, 1993, pp. 1317–1319) from insect cells that had been infected with a baculovirus expression vector. […] A complex of CDK2 and proteolyzed cyclin A was prepared and purified by gel filtration. The substrate for this assay was the same Rb substrate fragment used for the CDK4 assays, and the methodology of the CDK2/cyclin A and the CDK4/cyclin D3 assays was essentially the same, except that CDK2 was present at 150 nM or 5 nM. Ki values were measured as described above.

In a further assay the target is T2, FGFR1 tyrosine kinase (Homo sapiens, UniProt P11362, C488A/C584S/L457V).
T2 construct: the cytosolic domain of FGFR1 tyrosine kinase (amino acids 456–766); made in house; host or cells: Sf9 insect cells (baculovirus)
T2 sequence (P11362 456-766 L457V/C488A/C584S): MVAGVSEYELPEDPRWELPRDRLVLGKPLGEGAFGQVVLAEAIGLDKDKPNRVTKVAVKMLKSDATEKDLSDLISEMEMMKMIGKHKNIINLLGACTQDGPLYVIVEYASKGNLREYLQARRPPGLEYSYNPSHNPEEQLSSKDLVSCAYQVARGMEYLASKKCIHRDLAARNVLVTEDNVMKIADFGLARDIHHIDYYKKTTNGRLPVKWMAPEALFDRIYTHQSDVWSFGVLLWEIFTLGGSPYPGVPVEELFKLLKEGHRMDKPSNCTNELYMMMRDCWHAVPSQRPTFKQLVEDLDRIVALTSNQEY
The assay is described as follows: Inhibition of phosphorylated FGF receptor tyrosine kinase activity. The settings on record: for inhibition at 1 µM: read-out: FGF % Inhib. at 1 μM. Type of assay: biochemical. As to the method:
Inhibition of Phosphorylated FGF Receptor and LCK Tyrosine Kinase Activity
Cloning, expression and purification of the cytosolic domain of FGFR1 tyrosine kinase (amino acids 456–766) containing three amino acid substitutions (L457V, C488A, and C584S) were conducted as previously described (Mohammadi, M., Schlessinger, J., & Hubbard, S. R. (1996) Cell 86, 577–587). This domain was expressed in Sf9 insect cells using a baculovirus expression vector, and protein was purified using conventional techniques. The LCK tyrosine kinase was expressed in insect cells as an N-terminal deletion starting from amino acid 223 to the end of the protein at amino acid 509. The N-terminus of the protein also had two amino acid substitutions, P223M and C 224D. Kinases were purified using conventional chromatographic methods.
Tyrosine kinase activity was measured using a coupled, continuous spectrophotometric assay, in which production of phosphorylated poly(Glu, Tyr; 4:1) substrate and ADP is coupled to the pyruvate kinase-catalyzed transfer of a phosphate from phosphoenolpyruvate to ADP, with generation of pyruvate and regeneration of ATP. Pyruvate production is in turn coupled to the lactate dehydrogenase-catalyzed reduction of pyruvate to form lactate, with concomitant conversion of NADH to NAD+. Loss of NADH is monitored by measuring absorbance at 340 nm (see e.g., Technikova-Dobrova et al., “Spectrophotometric determination of functional characteristics of protein kinases with coupled enzymatic assay,” FEBS Letters, vol. 292 (1991), pp. 69–72). Enzyme activity was measured in the presence of 200 mM HEPES (pH 7.5), 2 mM phosphoenolpyruvate, 0.3 mM NADH, 20 mM MgCl2, 100 μM ATP, 5 mM DTT, 5.1 or 25 mM poly (Glu,Tyr) 4:1 for P-FGF or P-LCK assays, respectively, and 15 units/mL each of pyruvate kinase and lactate dehydrogenase. Phosphorylated FGF receptor kinase was present at 100 nM and phosphorylated LCK kinase was present at 50 nM. Assays were performed under initial rate conditions at 37° C., and rates were corrected for any background rate measured in the absence of enzyme. Percent inhibition was calculated relative to control enzyme assayed in the presence of 2% (v/v) DMSO.

A further assay deals with CDK4/cyclin D3 (Homo sapiens, UniProt P11802). Description: Inhibition of CDK4/Cyclin D Retinoblastoma Kinase Activity. Format: biochemical. The following applies: apparent Ki. As to the method:
as §1, §2
Inhibition of CDK4/Cyclin D Retinoblastoma Kinase Activity
A complex of human CDK4 and cyclin D3, or a complex of human CDK4 and genetically truncated (1–264) cyclin D3, was purified using traditional biochemical chromatographic techniques from insect cells that had been co-infected with the corresponding baculovirus expression vectors (see e.g., Meijer and Kim, “Chemical Inhibitors of Cyclin-Dependent Kinases,” Methods in Enzymol,. vol. 283 (1997), pp. 113–128.). The enzyme complex (5 or 50 nM) was assayed with 0.3–0.5 μg of purified recombinant retinoblastoma protein fragment (Rb) as a substrate. The engineered Rb fragment (residues 386–928 of the native retinoblastoma protein; 62.3 kDa) contains the majority of the phosphorylation sites found in the native 106-kDa protein, as well as a tag of six histidine residues for ease of purification. Phosphorylated Rb substrate was captured by microfiltration on a nitrocellulose membrane and quantified using a phosphorimager as described above. For measurement of tight-binding inhibitors, the enzyme complex concentration was lowered to 5 nM, and the assay duration was extended to 60 minutes, during which the time-dependence of product formation was linear.

Chain of CDK4/cyclin D3 (P11802 2-303 limits assumed): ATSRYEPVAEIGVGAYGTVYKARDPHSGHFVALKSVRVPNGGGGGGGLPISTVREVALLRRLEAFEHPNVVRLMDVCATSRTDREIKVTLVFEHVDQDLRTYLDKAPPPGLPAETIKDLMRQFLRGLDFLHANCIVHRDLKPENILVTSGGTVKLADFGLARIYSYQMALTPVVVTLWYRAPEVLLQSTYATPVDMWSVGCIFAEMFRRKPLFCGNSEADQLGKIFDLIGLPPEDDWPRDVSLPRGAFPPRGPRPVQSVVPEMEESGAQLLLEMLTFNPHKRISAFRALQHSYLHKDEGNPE
Chain of CDK4/cyclin D3 (P30281 1-264 limits assumed, further chain): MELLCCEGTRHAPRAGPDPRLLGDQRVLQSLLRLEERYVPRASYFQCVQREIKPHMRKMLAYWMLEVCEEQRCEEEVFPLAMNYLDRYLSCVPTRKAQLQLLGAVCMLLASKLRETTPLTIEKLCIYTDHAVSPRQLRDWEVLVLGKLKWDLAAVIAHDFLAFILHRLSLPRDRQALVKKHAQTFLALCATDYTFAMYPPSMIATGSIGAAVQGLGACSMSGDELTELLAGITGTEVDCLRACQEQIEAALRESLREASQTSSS

Turning to `C(=C\c1n[nH]c2ccc(-c3ccnc4ccccc34)cc12)/c1ccccc1` [Example 17, 4-[3-((E)-Styryl)-1H-indazol-5-yl]-quinoline], in the assay on HCT 116 cell line, the IC50 came out at 3200 nM and the IC90 worked out at 5000 nM. Moreover, the Ki on CDK2/cyclin A is 1400 nM. Further, the inhibition at 1 µM at FGFR1 tyrosine kinase was determined as 42.6%.
Regarding `Clc1cccc2[nH]c(-c3n[nH]c4ccc(-c5cncc6ccccc56)cc34)nc12` [Example 19, 4-[3-(4-Chloro-1H-benzoimidazol-2-yl)-1H-indazol-5-yl]-isoquinoline], at CDK4/cyclin D3, the Ki came to 54 nM. In addition, in the assay with HCT 116 cell line, the IC50 turned out to be 780 nM and the IC90 worked out at 1600 nM. At CDK2/cyclin A, the Ki stood at 1 nM. Moreover, the inhibition at 1 µM on FGFR1 tyrosine kinase worked out at 31.3%.
`CN1CCN(c2ccc3[nH]c(-c4n[nH]c5ccc(-c6cncc7ccccc67)cc45)nc3c2)CC1` [Example 20, 4-{3-[5-(4-Methyl-piperazin-1-yl)-1H-benzoimidazol-2-yl]-1H-indazol-5-yl}-isoquinoline]: the Ki on CDK4/cyclin D3 was 2.1 nM. In the assay on HCT 116 cell line, the IC50 was 70 nM and the IC90 came to 400 nM. Also, the Ki on CDK2/cyclin A came to 0.93 nM. Further, the inhibition at 1 µM on FGFR1 tyrosine kinase came to 96.9%.
Turning to `Cc1c(-c2ccc3[nH]nc(/C=C/c4ccccc4)c3c2)ccc(CCCO)c1O` [Example 22, 6-(3-Hydroxy-propyl)-2-methyl-3-[3-((E)-styryl)-1H-indazol-5-yl]-phenol], the Ki at CDK4/cyclin D3 was 15 nM; at CDK2/cyclin A, 94 nM. Further, in the assay with HCT 116 cell line, the IC50 stood at 5000 nM. In addition, in the assay on HCT 116 cell line, the IC90 came out at 5000 nM. Also, the inhibition at 1 µM at FGFR1 tyrosine kinase was 93.5%.
For the molecule `Cc1c(O)cccc1-c1ccc2[nH]nc(-c3nc4c(CO)cccc4[nH]3)c2c1` [Example 23, 3-[3-(4Hydroxymethyl-1H-benzoimidazol-2-yl)-1H-indazol-5-yl]-2-methyl-phenol], the Ki at CDK4/cyclin D3 is 65 nM; on CDK2/cyclin A it was 41 nM; at FGFR1 tyrosine kinase, 800 nM. In addition, in the assay with HCT 116 cell line, the IC50 turned out to be 4000 nM. Also, in the assay with HCT 116 cell line, the IC90 came out at 5000 nM.
For the molecule `C(=C\c1n[nH]c2ccc(-c3ccc4ccncc4c3)cc12)/c1ccccc1` [Example 24, 7-[3-((E)Styryl)-1H-indazol-5-yl]-isoquinoline], the Ki on CDK4/cyclin D3 was determined as 690 nM; on CDK2/cyclin A it was 1100 nM. The inhibition at 1 µM on FGFR1 tyrosine kinase was found to be 45.4%.
As to `c1ccc2c(-c3ccc4[nH]nc(-c5nc6ccccc6[nH]5)c4c3)cncc2c1` [Example 25, 4-[3-(1H-Benzoimidazol-2-yl)-1H-indazol-5-yl]-isoquinoline], the values for the Ki at CDK4/cyclin D3, at CDK2/cyclin A and on FGFR1 tyrosine kinase were 10 nM, 1 nM and 440 nM, respectively. Moreover, the 50% inhibitory concentration (IC50) in the assay with HCT 116 cell line was 330 nM. For the same molecule, the IC90 in the assay with HCT 116 cell line stood at 1100 nM.
With `OCCc1cccc2[nH]c(-c3n[nH]c4ccc(-c5cncc6ccccc56)cc34)nc12` [Example 30], on CDK4/cyclin D3, the Ki stood at 11 nM. Also, in the assay on HCT 116 cell line, the IC50 came out at 180 nM and the IC90 came to 620 nM. Besides, the Ki on CDK2/cyclin A came out at 1 nM. The inhibition at 1 µM at FGFR1 tyrosine kinase came out at 52.4%.
For `CNCc1cccc2[nH]c(-c3n[nH]c4ccc(-c5cncc6ccccc56)cc34)nc12` [Example 32, [2-(5-Isoquinolin-4-yl-1H-indazol-3-yl)-1H-benzoimidazol-4-yl-methyl]-methyl-amine] the same measures were 0.41 nM, 86 nM, 230 nM, 0.25 nM and 29.7%.
For `c1ccc2c(-c3ccc4[nH]nc(-c5nc6c(CN7CCCC7)cccc6[nH]5)c4c3)cncc2c1` [Example 33, 4-[3-(4Pyrrolidin-1-ylmethyl-1H-benzoimidazol-2-yl)-1H-indazol-5-yl]-isoquinoline] the same measures were 1.1 nM, 55 nM, 160 nM, 1 nM and 51.6%.
For `c1ccc2c(-c3ccc4[nH]nc(-c5nc6c(CCN7CCCC7)cccc6[nH]5)c4c3)cncc2c1` [Example 34, 4-{3-[4-(2-Pyrrolidin-1-yl-ethyl)-1H-benzoimidazol-2-yl]-1H-indazol-5-yl]-isoquinoline] the same measures were 19 nM, 200 nM, 580 nM, 1 nM and 26.9%.
With `CC(CO)CNCc1cccc2[nH]c(-c3n[nH]c4ccc(-c5cncc6ccccc56)cc34)nc12` (centres unmarked) [Example 35, 3-{[2-(5-Isoquinolin-4-yl-1H-indazol-3-yl)-1H-benzoimidazol-4-ylmethyl]-amino}-2-methyl-propan-1-ol], the Ki on CDK4/cyclin D3 stood at 3.2 nM. Besides, in the assay on HCT 116 cell line, the IC50 is 130 nM and the IC90 came to 370 nM. In addition, on CDK2/cyclin A, the Ki turned out to be 1 nM. Also, at FGFR1 tyrosine kinase, the inhibition at 1 µM was found to be 40.5%.
For `Cc1ccncc1-c1ccc2[nH]nc(/C=C/c3ccccc3)c2c1` [Example 43, 5-(4Methyl-pyridin-3-yl)-3-(E)styryl-1H-indazole] the same measures were 15 nM, 1900 nM, 5000 nM, 29 nM and 59.6%.

The values above are taken from patent US7232912B2, “Indazole compounds, pharmaceutical compositions, and methods for mediating or inhibiting cell proliferation” (Agouron Pharmaceuticals, Inc., priority 2000, dated 2007).
